Source: PubChem BioAssay (NCI)
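Briefly, cells in 96-well plates were exposed to five compound concentrations for 48 h, and endpoints were estimated by linear interpolation. TGI: concentration producing complete growth inhibition.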

How the values were obtained:
Assay in all cases: inhibition of tumour cell growth, NCI panel, 48 h
SK-MEL-28 melanoma = system: SK-MEL-28 melanoma
NCI-H226 lung = system: NCI-H226 lung
SW-620 colon = system: SW-620 colon
CAKI-1 renal = system: CAKI-1 renal
COLO 205 colon = system: COLO 205 colon
T-47D breast = system: T-47D breast
U251 CNS = system: U251 CNS
SNB-19 CNS = system: SNB-19 CNS
MDA-MB-231 breast = system: MDA-MB-231 breast
HL-60(TB) leukemia = system: HL-60(TB) leukemia
BT-549 breast = system: BT-549 breast
IGROV1 ovarian = system: IGROV1 ovarian
ACHN renal = system: ACHN renal
PC-3 prostate = system: PC-3 prostate
RXF 393 renal = system: RXF 393 renal
KM12 colon = system: KM12 colon
SK-MEL-5 melanoma = system: SK-MEL-5 melanoma
MDA-MB-435 = system: MDA-MB-435
HS 578T breast = system: HS 578T breast
SF-295 CNS = system: SF-295 CNS
NCI/ADR-RES ovarian = system: NCI/ADR-RES ovarian
HOP-92 NSCLC = system: HOP-92 NSCLC
SNB-75 CNS = system: SNB-75 CNS
UACC-62 melanoma = system: UACC-62 melanoma
HOP-62 NSCLC = system: HOP-62 NSCLC
UO-31 renal = system: UO-31 renal
HCC-2998 colon = system: HCC-2998 colon
HT29 colon = system: HT29 colon
NCI-H522 lung = system: NCI-H522 lung
NCI-H23 lung = system: NCI-H23 lung
OVCAR-5 ovarian = system: OVCAR-5 ovarian
M14 melanoma = system: M14 melanoma
MDA-N = system: MDA-N
K-562 leukemia = system: K-562 leukemia
OVCAR-3 ovarian = system: OVCAR-3 ovarian
SF-268 CNS = system: SF-268 CNS
SK-OV-3 ovarian = system: SK-OV-3 ovarian
HCT-116 colon = system: HCT-116 colon
UACC-257 melanoma = system: UACC-257 melanoma
MOLT-4 leukemia = system: MOLT-4 leukemia
SR leukemia = system: SR leukemia
HCT-15 colon = system: HCT-15 colon
TK-10 renal = system: TK-10 renal
SK-MEL-2 melanoma = system: SK-MEL-2 melanoma
RPMI-8226 leukemia = system: RPMI-8226 leukemia
786-0 renal = system: 786-0 renal
NCI-H460 lung = system: NCI-H460 lung
MALME-3M melanoma = system: MALME-3M melanoma
DU-145 prostate = system: DU-145 prostate
OVCAR-4 ovarian = system: OVCAR-4 ovarian
A498 renal = system: A498 renal
MCF7 breast = system: MCF7 breast
A549 NSCLC = system: A549 NSCLC
EKVX NSCLC = system: EKVX NSCLC
SN12C renal = system: SN12C renal
OVCAR-8 ovarian = system: OVCAR-8 ovarian
SF-539 CNS = system: SF-539 CNS
LOX IMVI melanoma = system: LOX IMVI melanoma
CCRF-CEM leukemia = system: CCRF-CEM leukemia

COc1ccc2[nH]c3cc4c(=O)c5cc(OC)ccc5[nH]c4cc3c(=O)c2c1
TGI (SK-MEL-28 melanoma): > 100 µM
TGI (NCI-H226 lung): > 100 µM
TGI (SW-620 colon): > 100 µM
TGI (CAKI-1 renal): > 100 µM
TGI (COLO 205 colon): > 100 µM
TGI (T-47D breast): > 100 µM
TGI (U251 CNS): > 100 µM
TGI (SNB-19 CNS): > 100 µM
TGI (MDA-MB-231 breast): > 100 µM
TGI (HL-60(TB) leukemia): 36.2 µM
TGI (BT-549 breast): > 100 µM
TGI (IGROV1 ovarian): > 100 µM
TGI (ACHN renal): > 100 µM
TGI (PC-3 prostate): > 100 µM
TGI (RXF 393 renal): > 100 µM
TGI (KM12 colon): > 100 µM
TGI (SK-MEL-5 melanoma): > 100 µM
TGI (MDA-MB-435): > 100 µM
TGI (HS 578T breast): > 100 µM
TGI (SF-295 CNS): > 100 µM
TGI (NCI/ADR-RES ovarian): > 100 µM
TGI (HOP-92 NSCLC): > 100 µM
TGI (SNB-75 CNS): 67.5 µM
TGI (UACC-62 melanoma): > 100 µM
TGI (HOP-62 NSCLC): > 100 µM
TGI (UO-31 renal): > 100 µM
TGI (HCC-2998 colon): > 100 µM
TGI (HT29 colon): > 100 µM
TGI (NCI-H522 lung): > 100 µM
TGI (NCI-H23 lung): > 100 µM
TGI (OVCAR-5 ovarian): > 100 µM
TGI (M14 melanoma): > 100 µM
TGI (MDA-N): > 100 µM
TGI (K-562 leukemia): > 100 µM
TGI (OVCAR-3 ovarian): > 100 µM
TGI (SF-268 CNS): > 100 µM
TGI (SK-OV-3 ovarian): > 100 µM
TGI (HCT-116 colon): > 100 µM
TGI (UACC-257 melanoma): > 100 µM
TGI (MOLT-4 leukemia): > 100 µM
TGI (SR leukemia): > 100 µM
TGI (HCT-15 colon): > 100 µM
TGI (TK-10 renal): > 100 µM
TGI (SK-MEL-2 melanoma): > 100 µM
TGI (RPMI-8226 leukemia): > 100 µM
TGI (786-0 renal): > 100 µM
TGI (NCI-H460 lung): > 100 µM
TGI (MALME-3M melanoma): > 100 µM
TGI (DU-145 prostate): > 100 µM
TGI (OVCAR-4 ovarian): > 100 µM
TGI (A498 renal): > 100 µM
TGI (MCF7 breast): > 100 µM
TGI (A549 NSCLC): > 100 µM
TGI (EKVX NSCLC): > 100 µM
TGI (SN12C renal): > 100 µM
TGI (OVCAR-8 ovarian): > 100 µM

N#Cc1ncc(C(Cl)Cl)nc1Cl
TGI (SK-MEL-28 melanoma): 4.2 µM
TGI (NCI-H226 lung): > 10 µM
TGI (SW-620 colon): 5.31 µM
TGI (CAKI-1 renal): 2.89 µM
TGI (COLO 205 colon): 3.3 µM
TGI (T-47D breast): 3.78 µM
TGI (U251 CNS): 3.78 µM
TGI (SNB-19 CNS): > 10 µM
TGI (MDA-MB-231 breast): 3.17 µM
TGI (HL-60(TB) leukemia): > 3.75 µM
TGI (BT-549 breast): 4.8 µM
TGI (IGROV1 ovarian): 5.3 µM
TGI (ACHN renal): 4.32 µM
TGI (PC-3 prostate): 3.62 µM
TGI (SF-539 CNS): 3.44 µM
TGI (RXF 393 renal): 3.39 µM
TGI (KM12 colon): 2.7 µM
TGI (SK-MEL-5 melanoma): 3.35 µM
TGI (MDA-MB-435): 3.9 µM
TGI (HS 578T breast): > 10 µM
TGI (SF-295 CNS): > 10 µM
TGI (LOX IMVI melanoma): 2.97 µM
TGI (NCI/ADR-RES ovarian): 5.38 µM
TGI (HOP-92 NSCLC): 0.536 µM
TGI (SNB-75 CNS): 6.64 µM
TGI (UACC-62 melanoma): 5.9 µM
TGI (HOP-62 NSCLC): > 8.07 µM
TGI (UO-31 renal): 3.17 µM
TGI (HCC-2998 colon): 3.06 µM
TGI (HT29 colon): 3.16 µM
TGI (NCI-H522 lung): 1.74 µM
TGI (NCI-H23 lung): 5.94 µM
TGI (OVCAR-5 ovarian): 4.39 µM
TGI (M14 melanoma): 2.82 µM
TGI (MDA-N): 3.07 µM
TGI (K-562 leukemia): > 7.1 µM
TGI (OVCAR-3 ovarian): 4.59 µM
TGI (SF-268 CNS): > 7.78 µM
TGI (SK-OV-3 ovarian): > 10 µM
TGI (HCT-116 colon): 3.04 µM
TGI (UACC-257 melanoma): 2.99 µM
TGI (MOLT-4 leukemia): > 6.63 µM
TGI (SR leukemia): > 5.84 µM
TGI (HCT-15 colon): 3.87 µM
TGI (TK-10 renal): 3.82 µM
TGI (SK-MEL-2 melanoma): 4.33 µM
TGI (CCRF-CEM leukemia): > 6.15 µM
TGI (786-0 renal): 3.16 µM
TGI (NCI-H460 lung): 3.74 µM
TGI (MALME-3M melanoma): > 6.39 µM
TGI (DU-145 prostate): > 10 µM
TGI (OVCAR-4 ovarian): 3.31 µM
TGI (A498 renal): > 10 µM
TGI (MCF7 breast): 3.86 µM
TGI (A549 NSCLC): > 10 µM
TGI (EKVX NSCLC): 3.27 µM
TGI (SN12C renal): 3.79 µM
TGI (OVCAR-8 ovarian): 5.16 µM
